Measurements reported in paper PMC7397056, “Design, Facile Synthesis and Characterization of Dichloro Substituted Chalcones and Dihydropyrazole Derivatives for Their Antifungal, Antitubercular and Antiproliferative Activities” (Molecules, 2020).
Values after ≈ are worked out from the molar mass of the structure shown. Where two headings read alike, the source gives them in different places.

Tests used:
[1] = system: Mycobacterium tuberculosis H37Rv; test: Antitubercular activity, broth dilution assay (MIC); assay type: cell-based; settings: for MIC: Middlebrook 7H9 broth, 37 °C, 21 days; for fold better activity than the standard pyrazinamide / fold less activity than pyrazinamide: ratio of MICs vs pyrazinamide (MIC 25.34 µM); for fold more antitubercular activity than the chalcones 14 and 16: 29 vs 14, 31 vs 16
[2] = system: prostate cancer cell lines (DU-145); test: Antiproliferative activity, MTT assay; assay type: cell-based; settings: Homo sapiens, 48 h, mean ± SD (n = 3)
Experimental: (§1) The antiproliferative activity of the compounds was determined their IC50 values. Methotrexate (Mtx; positive control) was used as a reference standard for comparing the antiproliferative activity of the target compounds. The MTT (3-(4,5-dimethylthiazol-2-yl)-2,5-diphenyl tetrazolium bromide) assay was based on the reduction of the soluble MTT (0.5 mg mL^−1, 100 µL) into a blue-purple formazan product, mainly by the activity of mitochondrial reductase enzymes inside the living cells. The prostate cancer cell lines, DU-145 cells, were cultured in Dulbecco’s Modified Eagle Medium (DMEM) media at 37 °C and humidified at 5% CO2. Stock solutions of the test compounds (17–46) were prepared in 0.1% DMSO followed by dilution with sterile water to obtain the desired final concentrations. Briefly, the cells were placed on 96-well plates at 100 µL total volume with the density of 1 × 10^4 cells per well and were allowed to adhere for 24 h. Then the medium was replaced with fresh media containing different dilutions of the test compounds and incubated for additional 48 h at 37 °C in DMEM with 10% fetal bovine serum (FBS) medium. Subsequently, the medium was replaced with 90 μL of fresh DMEM without FBS. The above wells were treated with 10 μL of MTT reagent (5 mg/mL of stock solution in DMEM without FBS) and incubated at 37 °C for 3–4 h. The formed blue formazan crystals were dissolved in 200 μL of DMSO. The optical density was determined at 570 nm using a micro plate reader. The assay was performed in triplicate for three independent experiments. The same experimentation was also done to confirm that the DMSO (negative control) had no effect in the study. The results had good reproducibility between replicate wells with standard errors below 10%. The antiproliferative activity results measured as IC50 values in µg/mL were converted and expressed in µM. Additionally, the cytotoxic activity of the compounds was also measured employing the same protocol discussed above to assess their toxicity on normal human cell lines (L02).

[3] = Cytotoxic activity on normal cells, MTT assay; assay type: cell-based
Experimental: as §1

[4] = system: Aspergillus niger (ATCC-6275); test: Antifungal activity, serial tube dilution method (MIC); settings: for MIC: Aspergillus niger; for Antifungal activity MIC, A. niger: serial tube dilution, 37 °C, 18 h, average of three
[5] = system: Candida tropicalis (ATCC-1369); test: as above; settings: for MIC: Candida tropicalis, ATCC1369, 18 h, read-out: Antifungal activity MIC, C. tropicalis, serial tube dilution, 37 °C, 18 h, average of three
[6] = Mycobacterium tuberculosis, H37RV, 504 h
[7] = L02 cells (normal human cell line)
[8] = ATCC6275, 18 h, read-out: Antifungal activity MIC, A. niger, serial tube dilution, 37 °C, 18 h, average of three
[9] = ATCC6275, read-out: Antifungal MIC, Aspergillus niger

Row | Structure (SMILES) | MIC [1, 6] [µM] | IC50 [2] [µM] | IC50 at 48 h [3, 7] [µg/mL] | melting point [°C] | MIC [4, 8] [µM] | MIC [5] [µM] | also measured
1 | O=C(/C=C/c1ccc(C(F)(F)F)cc1)c1ccc(Cl)c(Cl)c1 [Compound 9, (E)-1-(3,4-dichlorophenyl)-3-(4-trifluoromethylphenyl)prop-2-en-1-one] | 9.03 (≈ 3.12 µg/mL) | 292 ± 1 | > 50 | 169 | 11.6 | 11.6 (≈ 4 µg/mL) | fold improvement in antitubercular activity vs. compound 2 ([1]; comparator compound 2 (MIC 343.44 µM)): approximately 40 fold; fold better activity than the standard pyrazinamide [1]: 2.8 fold
2 | O=C(/C=C/c1ccccc1F)c1ccc(Cl)c(Cl)c1 [Compound 4] | 84.7 (≈ 25 µg/mL) | 393 ± 2 | > 50 | – | 27.1 | 54.2 (≈ 16 µg/mL) | –
3 | Fc1ccccc1C1CC(c2ccc(Cl)c(Cl)c2)=NN1c1ccccc1 (stereo not shown) [Compound 19, 3-(3,4-dichlorophenyl)-1-phenyl-5-(2-fluorophenyl)-4,5-dihydro-1H-pyrazole] | – | 327 ± 2 | > 75 | 149 | 20.8 | 41.5 (≈ 16 µg/mL) | MIC [1]: 32.44 µM (≈ 12.5 µg/mL); fold less activity than pyrazinamide [1]: 1.2 fold; MIC [4, 9]: 20.8 µg/mL
4 | Clc1ccc(C2=NN(c3ccccc3)C(c3cccs3)C2)cc1Cl (stereo not shown) [Compound 31, 3-(3,4-dichlorophenyl)-1-phenyl-5-(thiophen-2-yl)-4,5-dihydro-1H-pyrazole] | 8.35 (≈ 3.12 µg/mL) | 32 ± 1 | – | 212 | 5.35 | 5.35 (≈ 2 µg/mL) | fold more antitubercular activity than the chalcones 14 and 16 [1]: 2.6 fold; IC50 at 48 h ([3]; normal human cell line L02): > 75 µg/mL; fold better activity in comparison to fluconazole, Aspergillus niger [4]: 4.9 fold; fold improvement in MIC of dihydropyrazole over chalcone 16, Aspergillus niger ([4]; 31 (5.35 µM) vs 16 (14.12 µM)): 2.6 fold; fold better activity in comparison to fluconazole, Candida tropicalis [5]: 3.7 fold; fold improvement in MIC of dihydropyrazole over chalcone 16, Candida tropicalis ([5]; 31 (5.35 µM) vs 16 (14.12 µM)): 2.6 fold
5 | Clc1ccc(C2=NN(c3ccccc3)C(c3ccco3)C2)cc1Cl (stereo not shown) [Compound 29, 3-(3,4-dichlorophenyl)-1-phenyl-5-(furan-2-yl)-4,5-dihydro-1H-pyrazole] | 17.5 (≈ 6.25 µg/mL) | 162 ± 2 | > 75 | 200 | 11.2 | 11.2 (≈ 4 µg/mL) | fold more antitubercular activity than the chalcones 14 and 16 [1]: 2.6 fold
6 | Clc1ccc(C2CC(c3ccc(Cl)c(Cl)c3)=NN2c2ccccc2)cc1 (stereo not shown) [Compound 20, 3-(3,4-dichlorophenyl)-1-phenyl-5-(4-chlorophenyl)-4,5-dihydro-1H-pyrazole] | – | 149 ± 2 | > 75 | 261 | 28.8 | 39.8 (≈ 16 µg/mL) | MIC [1]: 31.11 µM (≈ 12.5 µg/mL); fold less activity than pyrazinamide [1]: 1.2 fold; Antifungal activity MIC, A. niger [4]: 19.91 µM
7 | O=C(/C=C/c1ccc(F)cc1)c1ccc(Cl)c(Cl)c1 [Compound 3] | 84.7 (≈ 25 µg/mL) | 176 ± 2 | > 50 | – | 54.2 | 54.2 (≈ 16 µg/mL) | –
8 | O=C(/C=C/c1ccc(F)cc1F)c1ccc(Cl)c(Cl)c1 [Compound 7, (E)-1-(3,4-dichlorophenyl)-3-(2,4-difluorophenyl)prop-2-en-1-one] | 9.96 (≈ 3.12 µg/mL) | 31 ± 2 | > 50 | 265 | 25.5 | 51.1 (≈ 16 µg/mL) | –
9 | O=C(/C=C/c1ccc2c(c1)OCO2)c1ccc(Cl)c(Cl)c1 [Compound 10] | 72.2 (≈ 23.2 µg/mL) | 138 ± 2 | > 50 | – | 23 | 180 (≈ 57.8 µg/mL) | Antifungal activity MIC, A. niger [4]: 23.11 µM; Antifungal activity MIC, C. tropicalis ([5]; serial tube dilution, 37 °C, 18 h, average of three): 180.62 µM
10 | NC(=O)c1cnccn1 [Pyrazinamide, reference compound] | 25.3 (≈ 3.12 µg/mL) | – | – | – | – | – | –
11 | Clc1ccc(C2=NN(c3ccccc3)C(c3ccccc3Cl)C2)cc1Cl (stereo not shown) [Compound 21, 3-(3,4-dichlorophenyl)-1-phenyl-5-(2-chlorophenyl)-4,5-dihydro-1H-pyrazole] | 15.6 to 32.4 (≈ 6.25 to 13 µg/mL) | 134 ± 2 | > 75 | 133 | 19.9 | 39.8 (≈ 16 µg/mL) | MIC [1]: 15.55 µM (≈ 6.25 µg/mL); fold better activity than the standard pyrazinamide [1]: 1.6 fold; MIC [4, 9]: 19.9 µg/mL
12 | FC(F)(F)c1ccc(C2CC(c3ccc(Cl)c(Cl)c3)=NN2c2ccccc2)cc1 (stereo not shown) [Compound 24, 3-(3,4-dichlorophenyl)-1-phenyl-5-(4-trifluoromethylphenyl)-4,5-dihydro-1H-pyrazole] | 3.67 (≈ 1.6 µg/mL) | 257 ± 2 | > 75 | 125 | 9.18 | 9.18 (≈ 4 µg/mL) | fold better activity than the standard pyrazinamide [1]: sevenfold; fold improvement in activity over compound 17 (CH3 replaced with CF3), Aspergillus niger ([4]; comparator compound 17): 4.6 fold; fold improvement in activity over compound 17 (CH3 replaced with CF3), Candida tropicalis ([5]; comparator compound 17): 4.6 fold
13 | O=C(/C=C/c1ccc(Cl)cc1Cl)c1ccc(Cl)c(Cl)c1 [Compound 8, (E)-1-(3,4-dichlorophenyl)-3-(2,4-dichlorophenyl)prop-2-en-1-one] | 18.1 (≈ 6.25 µg/mL) | 254 ± 2 | > 50 | 299 | 23.1 | 46.2 (≈ 16 µg/mL) | –
14 | Cc1ccc(C2CC(c3ccc(Cl)c(Cl)c3)=NN2c2ccccc2)cc1 (stereo not shown) [Compound 17, 3-(3,4-dichlorophenyl)-1-phenyl-5-(p-tolyl)-4,5-dihydro-1H-pyrazole] | 262 (≈ 100 µg/mL) | 351 ± 2 | > 75 | 168 | 42 | 42 (≈ 16 µg/mL) | –
15 | O=C(/C=C/c1ccncc1)c1ccc(Cl)c(Cl)c1 [Compound 13] | 45.1 (≈ 12.5 µg/mL) | 209 ± 2 | > 50 | – | 57.8 | 113 (≈ 31.4 µg/mL) | –
16 | Cc1ccc(/C=C/C(=O)c2ccc(Cl)c(Cl)c2)cc1 [Compound 2] | 343 (≈ 100 µg/mL) | 432 ± 2 | > 50 | – | 110 | 110 (≈ 32 µg/mL) | –
17 | O=C(/C=C/c1ccc(Cl)cc1)c1ccc(Cl)c(Cl)c1 [Compound 5] | 80.2 (≈ 25 µg/mL) | 147 ± 2 | > 50 | – | 25.7 | 51.3 (≈ 16 µg/mL) | –
18 | OC(Cn1cncn1)(Cn1cncn1)c1ccc(F)cc1F [Fluconazole, reference compound] | – | – | – | – | 26.1 | 19.6 (≈ 6 µg/mL) | –
19 | O=C(/C=C/c1ccccc1Cl)c1ccc(Cl)c(Cl)c1 [Compound 6] | 20.1 (≈ 6.25 µg/mL) | 141 ± 2 | > 50 | – | 25.7 | 51.3 (≈ 16 µg/mL) | –
